25 molecules from US9388123B2, “LSD1-selective inhibitor having lysine structure” (KYOTO UNIVERSITY, priority 2012, dated 2016) can be followed below.

The structures appear in SMILES notation. Structures can show the parent of a compound that is named as a salt.

Broadly, the GI50 is the concentration giving 50% growth inhibition. In general, IC50 refers to the midpoint of a concentration-inhibition curve. As usually defined, the melting point is the temperature, or range, at which the solid turns liquid.

The test system of one series is HeLa cells. Put plainly: Cancer cell growth inhibition evaluation (MTT assay). The conditions noted are these: Homo sapiens; 48 hours with compound, MTT; read-out: GI50 (μM) HeLa. The series is classed as cell-based. How it is done: (§1) Evaluation was performed by measuring the inhibitory activities of a compound against the growth of a human cervical cancer-derived cell line, HeLa cells, and a human neuroblastoma cell line, SH-SY5Y cells. Details thereof are shown below. […] This assay involves, as a principle thereof, measuring an absorbance at the time of color development through a reaction of NADH, which is contained in the mitochondria of viable cells, and MTT to measure the amount of NADH. The assay was performed by the following procedure. […] After the culture, a compound was added. Then, the cells were cultured for an additional 48 hours, and then 5 mg/ml MTT liquid was added at 10 μl per well. The cells were cultured for an additional 3 hours in a CO2 incubator. A solubilization solution (0.04 mol/l hydrochloric acid-isopropanol) was added at 100 μl per well and the mixture was vigorously vortexed. After that, an absorbance at 560 nm was measured with Fusion-aFP (manufactured by PerkinElmer) and the amount of viable cells was determined.

The test system of a further series is SH-SY5Y cells. Described as above. Type of series: cell-based. The settings on record: Homo sapiens, MTT, read-out: GI50 (μM) SH-SY5Y. How it is done: as §1
Another series addresses T1, LSD1 (Homo sapiens, UniProt O60341).
T1 construct: five histidine residues added to the N-terminus of full-length LSD1 (1-851aa); 5xHis (five histidine residues) (N); made in house; host or cells: Escherichia coli
Put plainly: LSD1 inhibition test (peroxidase-coupled absorbance assay). Type of series: biochemical. The settings on record: 25° C., 30 minutes, histone H3-lysine 4 dimethyl peptide.

With `NC1CC1c1ccccc1` (stereo not drawn) [Comp. Ex. 1, trans-2-Phenylcyclopropylamine, reference compound], the results for the GI50 in the series with HeLa cells and in the series on SH-SY5Y cells were above 500 µM and 503 µM, respectively.
Regarding `N[C@@H](CCCCNC1CC1c1ccccc1)C(=O)NCc1ccccc1` (stereo partly drawn) [Example 3, 2-Amino-6-(trans-2-phenylcyclopropan-1-amino)-N-benzylhexanamide Dihydrochloride], the IC50 against LSD1 was determined as 0.06 µM.
Molecule `Cc1ccc(CNC(=O)[C@H](CCCCNC2CC2c2ccccc2)NC(=O)c2ccc(-c3ccccc3)cc2)cc1` (stereo partly drawn) (as salt: hydrochloride) [Example 12, 2-[N-(4-Phenylbenzenecarbonyl)]amino-6-(trans-2-phenylcyclopropan-1-amino)-N-(4-methylbenzyl)hexanamide Hydrochloride] registered a melting point of 117 to 118 °C.
`O=C(N[C@@H](CCCCNC1CC1c1ccccc1)C(=O)NCc1ccccc1)c1cccc(C(=O)N2CCNCC2)c1` (stereo partly drawn) [Example 11, 2-[3-(Piperazine-1-carbonyl)benzenecarbonylamino}-6-(trans-2-phenylcyclopropan-1-amino)-N-benzylhexanamide Ditrifluoroacetate] gave an IC50 against LSD1 of 0.25 µM.
`O=C(N[C@@H](CCCCNC1CC1c1ccccc1)C(=O)NCc1ccccc1)c1ccc(-c2ccccc2)cc1` (stereo partly drawn) (as salt: hydrochloride) [Example 8, 2-[N-(4-Phenylbenzenecarbonyl)]amino-6-(trans-2-phenylcyclopropan-1-amino)-N-benzylhexanamide Hydrochloride] had a melting point of 143 to 146 °C.
The molecule `O=C(N[C@@H](CCCCNC1CC1c1ccccc1)C(=O)NCc1ccccc1)c1ccc(F)cc1` (stereo partly drawn) [Example 7, 2-[N-(4-Fluorobenzenecarbonyl)]amino-6-(trans-2-phenylcyclopropan-1-amino)-N-benzylhexanamide Hydrochloride] yielded an IC50 against LSD1 of 0.25 µM.
On the same count and under the same terms, under `Cc1ccc(C(=O)N[C@@H](CCCCNC2CC2c2ccccc2)C(=O)NCc2ccccc2)cc1` (stereo partly drawn) [Example 4, 2-[N-(4-Methylbenzenecarbonyl)]amino-6-(trans-2-phenylcyclopropan-1-amino)-N-benzylhexanamide Trifluoroacetate] stands 0.44 µM.
As for `O=C(N[C@@H](CCCCNC1CC1c1ccccc1)C(=O)NCc1ccc(F)cc1)c1ccc(-c2ccccc2)cc1` (stereo partly drawn) [Example 13, 2-[N-(4-Phenylbenzenecarbonyl)]amino-6-(trans-2-phenylcyclopropan-1-amino)-N-(4-fluorobenzyl)hexanamide Hydrochloride], the half-maximal inhibitory concentration (IC50) on LSD1 amounted to 0.75 µM. For the same molecule, the concentration for 50% growth inhibition (GI50) with HeLa cells turned out to be 4.4 µM; in the series on SH-SY5Y cells, 3.9 µM.
`O=C(N[C@@H](CCCCNC1CC1c1ccccc1)C(=O)NCc1ccccc1)c1ccc(C(F)(F)F)cc1` (stereo partly drawn) [Example 9, 2-[N-(4-Trifluoromethylbenzenecarbonyl)]amino-6-(trans-2-phenylcyclopropan-1-amino)-N-benzylhexanamide Hydrochloride] returned an IC50 on LSD1 of 0.38 µM. Besides, the GI50 with HeLa cells came to 13 µM; in the series on SH-SY5Y cells it was 5.4 µM.
`CC(C)(C)OC(=O)N[C@@H](CCCCNC1CC1c1ccccc1)C(=O)NCc1ccccc1` (stereo partly drawn) [Example 2, 2-(N-tert-Butoxycarbonyl)amino-6-(trans-2-phenylcyclopropan-1-amino)-N-benzylhexanamide] returned an IC50 at LSD1 of 1.2 µM.
In the case of `O=C(N[C@@H](CCCCNC1CC1c1ccccc1)C(=O)NCc1cccc(-c2ccccc2)c1)c1ccc(-c2ccccc2)cc1` (stereo partly drawn) [Example 18, 2-[N-(4-Phenylbenzenecarbonyl)]amino-6-(trans-2-phenylcyclopropan-1-amino)-N-(3-phenylbenzyl)hexanamide Hydrochloride], half-maximal inhibition against LSD1 (IC50) was put at 0.98 µM. Also, the concentration for 50% growth inhibition (GI50) in the series on HeLa cells was found to be 9.7 µM; with SH-SY5Y cells it was 3.8 µM.
`Cc1ccc(CNC(=O)[C@H](CCCCNC2CC2c2ccccc2)NC(=O)c2ccc(-c3ccccc3)cc2)cc1` (stereo partly drawn) [Example 12, 2-[N-(4-Phenylbenzenecarbonyl)]amino-6-(trans-2-phenylcyclopropan-1-amino)-N-(4-methylbenzyl)hexanamide Hydrochloride]: on LSD1, the IC50 came out at 0.6 µM. The GI50 in the series on HeLa cells stood at 4.4 µM; in the series with SH-SY5Y cells, 3.5 µM.
`O=C(N[C@@H](CCCCNC1CC1c1ccccc1)C(=O)NCc1ccccc1)c1ccc(C(F)(F)F)cc1` (stereo partly drawn) (as salt: hydrochloride) [Example 9, 2-[N-(4-Trifluoromethylbenzenecarbonyl)]amino-6-(trans-2-phenylcyclopropan-1-amino)-N-benzylhexanamide Hydrochloride] had a melting point of 98 to 101 °C.
For `O=C(N[C@@H](CCCCNC1CC1c1ccccc1)C(=O)NCc1ccc(F)cc1)c1ccc(-c2ccccc2)cc1` (stereo partly drawn) (as salt: hydrochloride) [Example 13, 2-[N-(4-Phenylbenzenecarbonyl)]amino-6-(trans-2-phenylcyclopropan-1-amino)-N-(4-fluorobenzyl)hexanamide Hydrochloride], the melting point was 95 to 96 °C.
Consider `CC(C)(C)c1ccc(C(=O)N[C@@H](CCCCNC2CC2c2ccccc2)C(=O)NCc2ccccc2)cc1` (stereo partly drawn) [Example 5, 2-[N-(4-tert-Butylbenzenecarbonyl)]amino-6-(trans-2-phenylcyclopropan-1-amino)-N-benzylhexanamide Hydrochloride], for which, at LSD1, the half-maximal inhibitory concentration (IC50) turned out to be 0.79 µM. The 50% growth inhibitory concentration (GI50) in the series on HeLa cells was 12 µM; in the series with SH-SY5Y cells, 4.8 µM.
In the same order, the values of `Cc1cccc(CNC(=O)[C@H](CCCCNC2CC2c2ccccc2)NC(=O)c2ccc(-c3ccccc3)cc2)c1` (stereo partly drawn) [Example 16, 2-[N-(4-Phenylbenzenecarbonyl)]amino-6-(trans-2-phenylcyclopropan-1-amino)-N-(3-methylbenzyl)hexanamide Hydrochloride] are 0.68 µM, 4.2 µM and 2.3 µM.
With `Cc1cccc(CNC(=O)[C@H](CCCCNC2CC2c2ccccc2)NC(=O)c2ccc(-c3ccccc3)cc2)c1` (stereo partly drawn) (as salt: hydrochloride) [Example 16, 2-[N-(4-Phenylbenzenecarbonyl)]amino-6-(trans-2-phenylcyclopropan-1-amino)-N-(3-methylbenzyl)hexanamide Hydrochloride], the melting point is 101 to 103 °C.
On to `O=C(N[C@@H](CCCCNC1CC1c1ccccc1)C(=O)NCc1ccccc1)c1ccc(Cl)cc1` (stereo partly drawn) (as salt: hydrochloride) [Example 6, 2-[N-(4-Chlorobenzenecarbonyl)]amino-6-(trans-2-phenylcyclopropan-1-amino)-N-benzylhexanamide Hydrochloride], for which the melting point fell in the range of 107 to 109 °C.
The molecule `NCCNC(=O)c1cccc(C(=O)N[C@@H](CCCCNC2CC2c2ccccc2)C(=O)NCc2ccccc2)c1` (stereo partly drawn) [Example 10, 2-{3-[(2-Amino)ethylcarbamoyl]benzenecarbonylamino)-6-(trans-2-phenylcyclopropan-1-amino)-N-benzylhexanamide Ditrifluoroacetate] gave an IC50 at LSD1 of 0.1 µM.
In turn, `O=C(N[C@@H](CCCCNC1CC1c1ccccc1)C(=O)NCc1ccc(-c2ccccc2)cc1)c1ccc(-c2ccccc2)cc1` (stereo partly drawn) [Example 14, 2-[N-(4-Phenylbenzenecarbonyl)]amino-6-(trans-2-phenylcyclopropan-1-amino)-N-(4-phenylbenzyl)hexanamide Hydrochloride] had an IC50 on LSD1 of 2.7 µM. For the same molecule, the results for the concentration for 50% growth inhibition (GI50) in the series on HeLa cells and in the series on SH-SY5Y cells were 5.2 µM and 6.4 µM, respectively.
On to `O=C(N[C@@H](CCCCNC1CC1c1ccccc1)C(=O)NCc1ccccc1)c1ccc(F)cc1` (stereo partly drawn) (as salt: hydrochloride) [Example 7, 2-[N-(4-Fluorobenzenecarbonyl)]amino-6-(trans-2-phenylcyclopropan-1-amino)-N-benzylhexanamide Hydrochloride], for which the melting point was in the range of 90 to 91 °C.
Still for that read-out and setting: the same measure for `O=C(N[C@@H](CCCCNC1CC1c1ccccc1)C(=O)NCc1ccc(-c2ccccc2)cc1)c1ccc(-c2ccccc2)cc1` (stereo partly drawn) (as salt: hydrochloride) [Example 14, 2-[N-(4-Phenylbenzenecarbonyl)]amino-6-(trans-2-phenylcyclopropan-1-amino)-N-(4-phenylbenzyl)hexanamide Hydrochloride]: 139 to 140 °C.
Molecule `O=C(N[C@@H](CCCCNC1CC1c1ccccc1)C(=O)NCc1ccccc1)c1ccc(Cl)cc1` (stereo partly drawn) [Example 6, 2-[N-(4-Chlorobenzenecarbonyl)]amino-6-(trans-2-phenylcyclopropan-1-amino)-N-benzylhexanamide Hydrochloride] came in with an IC50 against LSD1 of 0.2 µM. The GI50 with HeLa cells is 13 µM; in the series on SH-SY5Y cells, 11 µM.
In the same order, the values of `O=C(N[C@@H](CCCCNC1CC1c1ccccc1)C(=O)NCc1cccc(F)c1)c1ccc(-c2ccccc2)cc1` (stereo partly drawn) [Example 17, 2-[N-(4-Phenylbenzenecarbonyl)]amino-6-(trans-2-phenylcyclopropan-1-amino)-N-(3-fluorobenzyl)hexanamide Hydrochloride] are 0.67 µM, 10.9 µM and 4.1 µM.
On the same counts, the results for `CC(C)(C)c1ccc(CNC(=O)[C@H](CCCCNC2CC2c2ccccc2)NC(=O)c2ccc(-c3ccccc3)cc2)cc1` (stereo partly drawn) [Example 15, 2-[N-(4-Phenylbenzenecarbonyl)]amino-6-(trans-2-phenylcyclopropan-1-amino)-N-(4-tert-butylbenzyl)hexanamide Trifluoroacetate] are 1.2 µM, 4 µM and 2.7 µM.
